The subject of one test is E. coli 736. In words: In vivo activity alone and in combination (PD50, FIC). Particulars: Escherichia coli, sc, alone. The method, then:
(§1) In Tables 9-14, the results of the in vivo activity against certain microorganisms of compounds I, M and N as given. […] The results in these Tables and the PD50 's were determined by the procedure set forth on page 160 in Beskid et al., Antimicrobial Agents and Chemotherapy, Vol. 20, No. 2 pp. 159-167 (Aug. 1981) for "in vivo studies".
(§2) In the Tables, the fractional inhibitory concentration index (FIC) for synergistic combination of a compound of this invention (X) with known antibiotic compound (Y) is determined by the following formula:
(§3) FIC=(PD50 (X combination)/PD50 (X alone)+(PD50 (Y
(§4) combination)/PD50 (Y alone)
(§5) An FIC of ≤0.60 is indicative of synergy. The synergy rating in the Tables is as follows:
(§6) In the combination, the parts are parts by weight, i.e. 10 to 1 is 10 parts by weight to 1 part by weight.

A further test relates to K. pneumoniae 503-990A. The description is as above. The conditions noted are these: sc; for ED50: Klebsiella pneumoniae, 503990A, alone. The method, then: as §1, §2, §3, §4, §5, §6
For the next test, the system named is E. aerogenes 8. In words: In vivo antibacterial activity (PD50). The conditions noted are these: Klebsiella aerogenes, 8, sc, read-out: PD50, sc, 2 treatments.
In a further test the test system is S. marcescens SM. In words: In vivo antibacterial activity (PD50). Particulars: Serratia marcescens; sc; challenge 489 LD50s; 2 treatments; Table 11.
The subject of another test is P. aeruginosa 6148B. Kind of test: In vivo antibacterial activity (PD50). The conditions noted are these: Pseudomonas aeruginosa, sc.
In the next test the test system is E. coli 387-1. In words: In vivo antibacterial activity (PD50). The conditions noted are these: Escherichia coli, 3871; sc; challenge 127 LD50s; 1 treatment; Table 11.
Another test relates to P. aeruginosa 6719. Kind of test: In vivo antibacterial activity (PD50). The conditions noted are these: Pseudomonas aeruginosa, 6719, sc.
The test system of a further test is K. pneumoniae HE7. Kind of test: In vivo antibacterial activity (PD50). Particulars: Klebsiella pneumoniae, HE7, sc, 2 treatments.
In a further test the test system is E. coli 257. Kind of test: In vivo antibacterial activity (PD50). The conditions noted are these: Escherichia coli, 257, sc, challenge >10^4 LD50s, 1 treatment.
The next test has as its system C. freundii 8ASM. Kind of test: In vivo antibacterial activity (PD50). The conditions noted are these: Citrobacter freundii, sc, challenge 1000 LD50s, 1 treatment, Table 11.
Another test relates to P. aeruginosa 6799. Kind of test: In vivo antibacterial activity (PD50). The conditions noted are these: Pseudomonas aeruginosa, 6799, sc, read-out: PD50.
The subject of the next test is P. vulgaris 100. Kind of test: In vivo antibacterial activity (PD50). The conditions noted are these: Proteus vulgaris; sc; challenge 100 LD50s; 1 treatment; Table 11.
The test system of another test is P. aeruginosa 8710. Kind of test: In vivo antibacterial activity (PD50). The conditions noted are these: Pseudomonas aeruginosa, 8710, sc.
Another test relates to K. pneumoniae 8357. Kind of test: animal or person. The format is in vivo. Particulars: Klebsiella pneumoniae, 8357, sc, read-out: PD50.
For the next test, the system named is P. aeruginosa 503-56. Kind of test: In vivo antibacterial activity (PD50). Particulars: Pseudomonas aeruginosa, 50356, sc, challenge 50 LD50s, 2 treatments, Table 11.
The test system of another test is S. pneumoniae 6302. In words: In vivo antibacterial activity (PD50). The conditions noted are these: Streptococcus pneumoniae, 6302, sc, challenge 1000 LD50s, 1 treatment, Table 11.
Another test concerns S. marcescens S3. In words: In vivo antibacterial activity (PD50). The conditions noted are these: Serratia marcescens, S3; sc; challenge 32 LD50s; 2 treatments; Table 11; read-out: PD50.
In another test the test system is E. coli 5152. In words: In vivo antibacterial activity (PD50). The conditions noted are these: Escherichia coli, 5152, sc, 2 treatments.
Another test concerns S. faecalis C1. In words: In vivo antibacterial activity (PD50). The conditions noted are these: Enterococcus faecalis, C1; sc; challenge 10 LD50s; 1 treatment; Table 11.
Another test relates to S. pyogenes 4. In words: In vivo antibacterial activity (PD50). The conditions noted are these: Streptococcus pyogenes, 4, sc, sc, 2 treatments, read-out: PD50.
For another test, the system named is P. mirabilis 190. In words: In vivo antibacterial activity (PD50). The conditions noted are these: Proteus mirabilis, sc, challenge 10^4 LD50s, 1 treatment, Table 11.
The test system of the next test is P. aeruginosa 6720. Kind of test: In vivo antibacterial activity (PD50). The conditions noted are these: Pseudomonas aeruginosa, 6720, sc, 2 treatments.
A further test concerns E. cloacae 6951. In words: In vivo antibacterial activity (PD50). Particulars: Enterobacter cloacae, 6951, sc, 2 treatments.
In another test the test system is E. cloacae 214. Kind of test: In vivo antibacterial activity (PD50). The conditions noted are these: Enterobacter cloacae, sc, challenge 3.8 LD50s, 2 treatments, Table 11. The method, then:
as §1

For a further test, the system named is S. schottmuelleri. In words: In vivo antibacterial activity (PD50). The conditions noted are these: sc; challenge 163 LD50s; 1 treatment; Table 11. The method, then: as §1
The test system of the next test is S. aureus Smith. In words: In vivo antibacterial activity (PD50). The conditions noted are these: Staphylococcus aureus, sc, challenge 70 LD50s, 2 treatments, Table 11.
Another test relates to E. coli BC5524. In words: In vivo activity alone and in combination (PD50, FIC). The method, then:
as §1, §2, §3, §4, §5, §6

The test system of a further test is E. cloacae 4633. Described as above. Particulars: Enterobacter cloacae, 4633, sc, read-out: PD50 (alone). The method, then: as §1, §2, §3, §4, §5, §6

Read-outs that look alike come from different tables or passages of the source.

This is an account of results in patent US4605744A, “Imidazole derivatives” (Hoffmann-La Roche Inc., priority 1985, dated 1986).

With `CC1(C)S[C@@H]2[C@H](NC(=O)[C@H](N)c3ccccc3)C(=O)N2[C@H]1C(=O)O` [Ampicillin, ampicillin, reference compound], the ED50 worked out at 5 mg/kg in the test on E. coli 736, 29 mg/kg in the test with K. pneumoniae 503-990A, 58 mg/kg in the test with K. pneumoniae 503-990A (Table 14 line (1)) and 10 mg/kg in the test on K. pneumoniae 503-990A (Table 14 line (2)). The “PD50 (alone)” value in the test with K. pneumoniae 503-990A is given as 16 mg/kg.

Take `CO/N=C(\C(=O)N[C@@H]1C(=O)N2C(C(=O)O)=C(CSc3nc(=O)c(=O)[nH]n3C)CS[C@H]12)c1csc(N)n1` [Ceftriaxone, ceftriaxone]: the ED50 was 6.9 mg/kg in the test on E. aerogenes 8 (challenge 10 LD50s, Table 11); 6.8 mg/kg in the test with E. aerogenes 8 (challenge 24 LD50s, Table 10); less than 2 mg/kg in the test with S. marcescens SM; less than 5 mg/kg in the test with P. aeruginosa 6148B (challenge 4.5 LD50s, 3 treatments, Table 10); 62 mg/kg in the test with P. aeruginosa 6148B (challenge 32 LD50s, 2 treatments, Table 11); 8 mg/kg in the test with P. aeruginosa 6148B (challenge 33 LD50s, 3 treatments, Table 10). Also, the ED50 is 0.09 mg/kg in the test with E. coli 387-1; 18 mg/kg in the test with P. aeruginosa 6719 (challenge 2249 LD50s, 3 treatments, Table 10); 15 mg/kg in the test with P. aeruginosa 6719 (challenge 2290 LD50s, 2 treatments, Table 11); less than 1 mg/kg in the test on K. pneumoniae HE7 (challenge 750 LD50s, Table 10); 0.39 mg/kg in the test on K. pneumoniae HE7 (challenge 1000 LD50s, Table 11); less than 1 mg/kg in the test with E. coli 257 (Table 10). The ED50 in the test with E. coli 257 (Table 11) was less than 1 mg/kg; in the test with C. freundii 8ASM, 0.15 mg/kg; in the test on P. aeruginosa 6799, less than 10 mg/kg; in the test with P. aeruginosa 6799 (sc, challenge 71 LD50s, 2 treatments, Table 11) it was 16 mg/kg; in the test on P. vulgaris 100, 0.05 mg/kg; in the test with P. aeruginosa 8710 (alone, challenge 1738 LD50s, Table 13, read-out: PD50 (alone)) it was 41 mg/kg. The ED50 with P. aeruginosa 8710 (challenge >10^4 LD50s, 2 treatments, Table 11, read-out: PD50) was 31 mg/kg; in the test on K. pneumoniae 8357, 0.03 mg/kg; in the test with P. aeruginosa 503-56 it was more than 250 mg/kg; in the test with S. pneumoniae 6302, 0.22 mg/kg; in the test on S. marcescens S3 it was 0.03 mg/kg; with E. coli 5152 (challenge 2717 LD50s, Table 10), less than 5 mg/kg. The ED50 was less than 2 mg/kg with E. coli 5152 (challenge 4780 LD50s, Table 11); 50 mg/kg in the test with S. faecalis C1; less than 2 mg/kg in the test with S. pyogenes 4 (challenge 3.3 LD50s, Table 11); more than 2 mg/kg with S. pyogenes 4 (challenge 100 LD50s, Table 10); 0.007 mg/kg in the test with P. mirabilis 190; 15 mg/kg in the test with P. aeruginosa 6720 (challenge 35 LD50s, Table 11). Besides, the ED50 with P. aeruginosa 6720 (challenge 3511 LD50s, Table 10) is 14 mg/kg; with E. cloacae 6951 (challenge 562 LD50s, Table 10), less than 1 mg/kg; in the test on E. cloacae 6951 (challenge 3162 LD50s, Table 11), 0.03 mg/kg; with E. cloacae 214 it was less than 10 mg/kg; with S. schottmuelleri, less than 0.5 mg/kg; in the test with S. aureus Smith, 3.2 mg/kg.

Regarding `CC(=O)OCC1=C(C(=O)O)N2C(=O)[C@@H](NC(=O)Cc3cccs3)[C@H]2SC1` [Cephalothin, cephalothin, reference compound], the ED50 in the test on E. coli BC5524 (Escherichia coli, BC5524, sc, read-out: PD50 (alone), sc) is less than 250 mg/kg; in the test on E. cloacae 4633, more than 250 mg/kg. In addition, in the test on E. coli BC5524 (sc), the “PD50 (alone)” value is more than 250 mg/kg.
